Reference: patent US20090221518A1, “Compositions and Methods for Treatment of Exudative Serous Effusion” (Anaborex, Inc., priority 2007, published 2009)
Marks after values point to notes of the source that are not given here.

What was measured:
[1] = macrolide given to rats prior to carrageenan stimulation; cited from earlier work
[2] = test system: serum albumin; experiment: Serum albumin concentration, rat AH model; type: in vivo, female Wistar rats; conditions: Experiment 2; 50 mg/kg ip
Description: Following the method of Busquets et al., female Wistar rats were inoculated (Day 0) intraperitoneally (ip) with 2×10^7 cells/animal of Yoshida AH-130 ascites hepatoma (AH) cells. Control animals were inoculated with an equivalent amount of sterile saline solution. […] The roxithromycin dosing solution was 2 mg/mL in 20 mM citrate, pH of 5.5, and 4.5% mannitol in water. […] In Experiment 2, the single treatment group received 50 mg/kg roxithromycin (ip). Ascites volumes, serum albumin concentrations, and CRP levels in dissected gastrocnemius muscle were determined. AH cell counts and cell viability (%) were determined in recovered ascites fluid.

[3] = test system: Yoshida AH-130 ascites hepatoma (AH) cells; experiment: AH cell count and viability in recovered ascites fluid, rat AH model; type: in vivo, female Wistar rats
Description: Following the method of Busquets et al., female Wistar rats were inoculated (Day 0) intraperitoneally (ip) with 2×10^7 cells/animal of Yoshida AH-130 ascites hepatoma (AH) cells. Control animals were inoculated with an equivalent amount of sterile saline solution. […] The roxithromycin dosing solution was 2 mg/mL in 20 mM citrate, pH of 5.5, and 4.5% mannitol in water.
For the cell count measurements in ascites, the cells were counted directly from the ascites collected at necropsy from N 4 animals in […]. A […] aliquot was taken from each sample and diluted 1:500 with trypan blue. The sample was then placed onto a hemacytometer and both sides counted to determine the total number of viable and non-viable AH cells.
In Experiment 2, the single treatment group received 50 mg/kg roxithromycin (ip). Ascites volumes, serum albumin concentrations, and CRP levels in dissected gastrocnemius muscle were determined. AH cell counts and cell viability (%) were determined in recovered ascites fluid.

[4] = test system: Yoshida AH-130 ascites hepatoma (AH) cells; experiment: Ascites volume in rat AH (Yoshida AH-130 ascites hepatoma) model; type: in vivo, female Wistar rats; conditions: for Ascites (mL) Mean: AH-inoculated rats
Description: Following the method of Busquets et al., female Wistar rats were inoculated (Day 0) intraperitoneally (ip) with 2×10^7 cells/animal of Yoshida AH-130 ascites hepatoma (AH) cells. Control animals were inoculated with an equivalent amount of sterile saline solution. […] The roxithromycin dosing solution was 2 mg/mL in 20 mM citrate, pH of 5.5, and 4.5% mannitol in water. The animals were sacrificed on Day 5. Upon sacrifice ascites fluid was withdrawn by syringe and the volume determined. Three different experiments were performed. In each experiment one control group received an ascites hepatoma (AH) inoculation with vehicle treatment, and a second control group received saline inoculation with vehicle treatment. In Experiment 1, the single treatment group received 5 mg/kg roxithromycin (ip). Ascites volumes were determined. In Experiment 2, the single treatment group received 50 mg/kg roxithromycin (ip). Ascites volumes, serum albumin concentrations, and CRP levels in dissected gastrocnemius muscle were determined. AH cell counts and cell viability (%) were determined in recovered ascites fluid. In Experiment 3, one treatment group received 40 mg/kg (ip) roxithromycin, and a second treatment group received 40 mg/kg (po). Ascites volumes, plasma CRP and VEGF concentrations, and ascites CRP and VEGF concentrations were determined.

[5] = test system: C-reactive protein (CRP); experiment: C-reactive protein in gastrocnemius muscle lysate (Quantikine Rat CRP Immunoassay Kit), rat AH model; type: in vivo, female Wistar rats; conditions: Experiment 2, 50 mg/kg ip
Description: Following the method of Busquets et al., female Wistar rats were inoculated (Day 0) intraperitoneally (ip) with 2×10^7 cells/animal of Yoshida AH-130 ascites hepatoma (AH) cells. Control animals were inoculated with an equivalent amount of sterile saline solution. […] The roxithromycin dosing solution was 2 mg/mL in 20 mM citrate, pH of 5.5, and 4.5% mannitol in water. Serum samples were collected prior to sacrifice on D5 and assayed for serum albumin concentration. After determination of gastrocnemius muscle wet weight, some gastrocnemius samples were lysed and determinations made of C-reactive protein (CRP, using Quantikine Rat CRP Immunoassay Kit) and total protein. A commercial immunoassay kit (Quantikine Rat VEGF Immunoassay, R & D Systems PN RRV00) was used to determine Vascular Endothelial Growth Factor (VEGF) concentration in plasma and ascites. Similarly, CRP concentration in plasma and ascites was determined using a commercial kit (Rat High-Sensitive CRP ELISA Method, Kamiya Biochemical PN KT099). In Experiment 2, the single treatment group received 50 mg/kg roxithromycin (ip). Ascites volumes, serum albumin concentrations, and CRP levels in dissected gastrocnemius muscle were determined. AH cell counts and cell viability (%) were determined in recovered ascites fluid.

[6] = test system: C-reactive protein (CRP); experiment: CRP concentration in plasma and ascites (Rat High-Sensitive CRP ELISA), rat AH model; type: in vivo, female Wistar rats; conditions: Experiment 3; for Ascites [CRP] Mean: ascites fluid; for Ascites CRP ng/rat Mean: concentration times ascites volume; for Plasma [CRP] Mean: AH-inoculated
Description: (§1) Following the method of Busquets et al., female Wistar rats were inoculated (Day 0) intraperitoneally (ip) with 2×10^7 cells/animal of Yoshida AH-130 ascites hepatoma (AH) cells. Control animals were inoculated with an equivalent amount of sterile saline solution. […] The roxithromycin dosing solution was 2 mg/mL in 20 mM citrate, pH of 5.5, and 4.5% mannitol in water. Serum samples were collected prior to sacrifice on D5 and assayed for serum albumin concentration. After determination of gastrocnemius muscle wet weight, some gastrocnemius samples were lysed and determinations made of C-reactive protein (CRP, using Quantikine Rat CRP Immunoassay Kit) and total protein. A commercial immunoassay kit (Quantikine Rat VEGF Immunoassay, R & D Systems PN RRV00) was used to determine Vascular Endothelial Growth Factor (VEGF) concentration in plasma and ascites. Similarly, CRP concentration in plasma and ascites was determined using a commercial kit (Rat High-Sensitive CRP ELISA Method, Kamiya Biochemical PN KT099). In Experiment 3, one treatment group received 40 mg/kg (ip) roxithromycin, and a second treatment group received 40 mg/kg (po). Ascites volumes, plasma CRP and VEGF concentrations, and ascites CRP and VEGF concentrations were determined.

[7] = test system: Vascular Endothelial Growth Factor (VEGF); experiment: VEGF concentration in plasma and ascites (Quantikine Rat VEGF Immunoassay), rat AH model; type: in vivo, female Wistar rats; conditions: Experiment 3; for Ascites [VEGF] Mean: ascites fluid; for Ascites VEGF pg/rat Mean: concentration times ascites volume
Description: as §1

[8] = test system: lung cancer; conditions: lung cancer patients; cited from earlier work
[9] = Experiment 2, ascites, AH-inoculated, 50 mg/kg ip, N = 4

Question: With `CC[C@H]1OC(=O)[C@H](C)[C@@H](O[C@H]2C[C@@](C)(OC)[C@@H](O)[C@H](C)O2)[C@H](C)[C@@H](O[C@@H]2O[C@H](C)C[C@H](N(C)C)[C@H]2O)[C@](C)(O)C[C@@H](C)/C(=N\OCOCCOC)[C@H](C)[C@@H](O)[C@]1(C)O` [roxithromycin] as the compound, how does the “Exudate accumulation in rat paws” value [1] read?
Answer: limit exudate accumulation

Question: And the “Serum albumin levels versus AH-inoculated vehicle animals” value [2]?
Answer: did not significantly change

Question: And the “AH cell densities or cell counts versus vehicle control” value ([3]; Experiment 2, 50 mg/kg ip)?
Answer: did not reduce

Question: And the “Viable Cells % Mean” value ([3]; Experiment 2, ascites AH cells, trypan blue, 50 mg/kg ip, N = 4)?
Answer: 99%

Question: What about the “Cells/mL × 10^6 Mean” value [3, 9] of the same compound?
Answer: 338 Cells/mL × 10^6

Question: What about the “Total Cells # × 10^6 Mean” value [3, 9] of the same compound?
Answer: 2,077 × 10^6

Question: What about the “Cytostatic or cytotoxic activity toward ascites hepatoma cells” value ([3]; rat AH model, conclusion from cell counts and viability) of the same compound?
Answer: does not appear to be cytostatic or cytotoxic

Question: And the “Accumulated ascites fluid versus vehicle control” value ([4]; Experiment 1, 5 mg/kg (ip), difference not statistically significant)?
Answer: lowered the accumulated ascites fluid

Question: What about the “Ascites (mL) Mean” value ([4]; Experiment 1, 5 mg/kg ip qd from Day 1, sacrifice Day 5) of the same compound?
Answer: 3.48** mL

Question: And the “Accumulated ascites volume versus vehicle control” value ([4]; Experiment 2, 50 mg/kg ip)?
Answer: very significantly reduced

Question: What about the “Ascites (mL) Mean” value ([4]; Experiment 2, 50 mg/kg ip qd, Day 5) of the same compound?
Answer: 2.92 mL

Question: What about the “Accumulated ascites volume versus vehicle control” value ([4]; Experiment 3, 40 mg/kg given either po or ip) of the same compound?
Answer: very significantly reduced

Question: And the “Ascites (mL) Mean” value ([4]; Experiment 3, 40 mg/kg i.p. qd, Day 5)?
Answer: 3.0 mL

Question: What about the “Ascites (mL) Mean” value ([4]; Experiment 3, 40 mg/kg oral, bid, Day 5) of the same compound?
Answer: 3.7 mL

Question: What about the “Muscle CRP levels versus AH-inoculated vehicle animals” value [5] of the same compound?
Answer: did significantly reduce

Question: And the “Muscle CRP Mean” value ([5]; gastrocnemius muscle, AH-inoculated rats)?
Answer: 28.5 ng/mg total protein

Question: And the “Total CRP per rat in ascites versus vehicle control” value ([6]; 40 mg/kg given either orally or intraperitoneally)?
Answer: statistically significantly reduced

Question: And the “Plasma CRP concentration versus vehicle-treated animals” value ([6]; 40 mg/kg ip)?
Answer: lowered plasma CRP concentration compared with the vehicle-treated animals, but the differences were not statistically significant

Question: What about the “Plasma CRP concentration versus vehicle-treated animals” value ([6]; 40 mg/kg oral) of the same compound?
Answer: very significantly lowered

Question: And the “Ascites [CRP] Mean” value ([6]; 40 mg/kg i.p. qd (Group 9))?
Answer: 230 ng/mL

Question: And the “Ascites [CRP] Mean” value ([6]; 40 mg/kg oral, bid (Group 10))?
Answer: 287 ng/mL

Question: What about the “Ascites CRP ng/rat Mean” value ([6]; 40 mg/kg i.p. qd (Group 9)) of the same compound?
Answer: 530 ng/rat

Question: And the “Ascites CRP ng/rat Mean” value ([6]; 40 mg/kg oral, bid (Group 10))?
Answer: 730 ng/rat

Question: And the “Plasma [CRP] Mean” value ([6]; 40 mg/kg i.p. qd)?
Answer: 709 µg/mL

Question: And the “Plasma [CRP] Mean” value ([6]; 40 mg/kg oral, bid)?
Answer: 593 µg/mL

Question: And the “Ascites [VEGF] Mean” value ([7]; 40 mg/kg i.p. qd (Group 9))?
Answer: 4,590 pg/mL

Question: What about the “Ascites [VEGF] Mean” value ([7]; 40 mg/kg oral, bid (Group 10)) of the same compound?
Answer: 4,040 pg/mL

Question: What about the “Ascites VEGF pg/rat Mean” value ([7]; 40 mg/kg i.p. qd (Group 9)) of the same compound?
Answer: 10,200 pg/rat

Question: And the “Ascites VEGF pg/rat Mean” value ([7]; 40 mg/kg oral, bid (Group 10))?
Answer: 9,900 pg/rat

Question: And the “Plasma VEGF concentration” value ([7]; plasma, 40 mg/kg ip qd or oral bid)?
Answer: below the immunoassay method quantitation limit

Question: What about the “Influence on VEGF levels” value ([7]; rat AH model) of the same compound?
Answer: does not influence VEGF levels

Question: For `CC[C@H]1OC(=O)[C@H](C)[C@@H](O[C@H]2C[C@@](C)(OC)[C@@H](O)[C@H](C)O2)[C@H](C)[C@@H](O[C@@H]2O[C@H](C)C[C@H](N(C)C)[C@H]2O)[C@](C)(OC)C[C@@H](C)C(=O)[C@H](C)[C@@H](O)[C@]1(C)O` [clarithromycin], which IL6 levels [8] is on record?
Answer: reduced

Question: And the Median survival time [8]?
Answer: significantly increased
